According to patent US20130296316A1, “Antiparasitic Agents Based On mTOR Inhibitors” (priority 2010, published 2013):
“Also recorded” adds a separate entry of the source. Where two headings read alike, the source gives them in different places.

Experiments:
[1] = tested on: Leishmania; conditions: methods similar to those described here; cited from earlier work
[2] = tested on: T. b. rhodesiense EATRO3; experiment: Acute mouse infection model of T. b. rhodesiense; type: in vivo, Balb/c mice; conditions: for mean survival day (MSD): once per day for four days, untreated died 6th day
[3] = tested on: L. major; experiment: Mouse model of L. major infection (bioluminescent imaging); type: in vivo, Balb/c mice
Protocol: (§1) The targeted dosage of inhibitors was determined based on the pharmacokinetic studies disclosed by Maira, et al.. […] For L. major, 12.5 mg/kg orally was the highest tolerable dose while 30 mg/kg intraperitoneally was used for the T. cruzi infections. A lower dose was initially used in T. brucei, 5 or 10 mg/kg intraperitoneally.
Mouse experiments were done in compliance with policies approved by the Animal Review Board at Washington University. Mice were infected with luciferase expressing L. major (LmFV1LucTK-1) and analyzed by bioluminescent imaging as described. Balb/c mice were infected with 10^5 L. major metacyclic stage parasites purified by gradient centrifugation. Luminescence was measured using an IVIS 100 instrument and analyzed with Living Image software version 2.60.

[4] = tested on: L. major promastigotes; experiment: Potency assessment against Leishmania major promastigotes (growth, cell counting); type: cell-based; conditions: promastigotes, average of three replicates; read-out: Effective concentration (EC50) L. major
[5] = tested on: free T. cruzi trypomastigotes; experiment: T. cruzi extracellular survival of free trypomastigotes (24 h, CPRG); type: cell-based, Trypanosoma cruzi
Protocol: T. cruzi trypomastigotes from the Tulahuen strain stably expressing the β-galactosidase gene were obtained from the supernatant of infected cultures of LLC-MK2 cells harvested between days 5 and 7. To remove amastigotes, trypomastigotes were allowed to swim out of the pellet of samples that had been centrifuged for 7 min at 2500 rpm.
Free trypomastigotes were rinsed once and placed in 96-well plates at 100,000/well with the compounds in a final volume of 200 μl of DMEM without phenol red supplemented with 2% FBS, Pen-Strep-Glut and 100 μM CPRG. Plates were incubated for 24 h at 37° C. and absorbance was read at 590 nm.

[6] = tested on: T. b. brucei Lister 927; experiment: Potency assessment against T. b. brucei Lister 927; type: cell-based, Trypanosoma brucei brucei; conditions: Table 3
Protocol: Assays were performed using the strain of T. brucei brucei Lister 427 adapted to the laboratory, and the human-infective strain T. b. rhodesiense (EATRO3 ETat1.2 TREU164 [37]). Both strains were grown and tested as bloodstream forms. To establish the EC50, cultures of Trypanosoma brucei and T. b. rhodesiense were treated with two-fold increasing concentrations of compounds (with similar DMSO increasing concentration as control). Cell populations were measured at 72 hours with an Infinite F200 microplate reader (Tecan Austria GmbH, Austria); the determination of cell viability was carried out by the established colorimetric technique AlamarBlue® with modifications, a 96-well plate format spectrophotometric assay which measures the ability of living cells to reduce resazurin [38,39]. Data obtained with T. b. brucei Lister 427 were confirmed by manual counting in a Neubauer chamber for a direct microscopic examination to rule out multinucleated phenotypes that could mask the colorimetric assays, as well as the subtraction of solvent background to dismiss a potential solvent-derived fluorescence. Pentamidine was used as drug control for potency comparison, and T. b. brucei Lister 927 strain was included in our experiments to evaluate the adaptation to medium for the different strains as a variable condition.

[7] = tested on: Leishmania; experiment: Leishmania growth inhibition summarised across both species and stages; type: cell-based; conditions: range over L. major and L. donovani, promastigotes and amastigotes; read-out: inhibition of Leishmania across both species and stages
[8] = tested on: T. b. rhodesiense; experiment: Potency assessment against T. b. rhodesiense EATRO3 bloodstream form (AlamarBlue, 72 h); type: cell-based, Trypanosoma brucei rhodesiense
[9] = tested on: T. cruzi Y strain; experiment: Mouse model of T. cruzi infection (luciferase imaging); type: in vivo, Balb/c mice; conditions: 30 mg/kg, 5 days, intraperitoneal
Protocol: as §1
Balb/c mice were inoculated intraperitoneally with 10^5 trypomastigotes from T. cruzi Y strain expressing firefly luciferase (kindly provided by Dr. Barbara Burleigh, Harvard University). On day 7 post-infection, mice were anesthetized with ketamine/xylazine and injected with 3 mg of D-Luciferin Potassium Salt (Gold Biotechnology) at 20 mg/ml in PBS and imaged in the IVIS Lumina II (Caliper Life Sciences). […] Mice were treated for 5 days and imaged again on day 13. Data is expressed as the ratio between luciferase units in day 13 versus day 7 to determine the progression of infection with and without drug treatment.

[10] = tested on: L. donovani axenic amastigotes; experiment: Potency assessment against Leishmania donovani axenic amastigotes (growth, cell counting); type: cell-based; conditions: axenic amastigotes, average of three replicates; read-out: Effective concentration (EC50) L. donovani axenic amastigotes
[11] = tested on: T. brucei brucei Lister 427 bloodstream cells; experiment: Morphological and cell cycle alterations in T. brucei (flow cytometry); type: cell-based, Trypanosoma brucei brucei
Protocol: Flow cytometry was used to assess cell size and DNA content, to reveal a G1 arrest and inhibition of protein synthesis or G2 arrest and multinucleated cells. […]. After permeabilization with […], saponin (0.5 mg/mL final concentration), the culture was RNAse treated for 30 minutes (10 μg/mL final concentration) and stained with 20 μg/mL propidium iodide immediately before its acquisition in a FACscan cytometer. Cells incubated with equivalent concentration of drug solvent (DMSO) were included in each experiment as control population.

[12] = tested on: human cells; conditions: literature, Table 1; read-out: Inhibition of Cell Growth EC50; cited from earlier work
[13] = tested on: T. brucei gambiense, ELIANE strain; experiment: Potency assessment against T. b. gambiense ELIANE bloodstream form; type: cell-based, Trypanosoma brucei gambiense
[14] = tested on: L. donovani promastigotes; experiment: Potency assessment against Leishmania donovani promastigotes (growth, cell counting); type: cell-based; conditions: promastigotes, average of three replicates; read-out: Effective concentration (EC50) L. donovani promastigotes
[15] = tested on: T. cruzi trypomastigotes; experiment: T. cruzi intracellular replication in NIH/3T3 host cells (β-galactosidase, CPRG); type: cell-based, Trypanosoma cruzi
[16] = tested on: T. brucei brucei Lister 427; experiment: Potency assessment against T. brucei brucei Lister 427 bloodstream form (AlamarBlue, 72 h); type: cell-based, Trypanosoma brucei brucei
[17] = tested on: L. major promastigotes; experiment: Cell size and DNA content analysis in Leishmania (flow cytometry); type: cell-based, Leishmania major
Protocol: L. major log phase promastigotes were inoculated at a concentration of 10^6 cells/ml into media with compounds as indicated, and incubated overnight with varying drug concentrations to assess cell size and DNA content. For cell size, forward scatter of live promastigotes was measured by a FACS flow cytometer (Becton Dickinson), utilizing dye exclusion with 5 μg/ml propidium iodide (PI) to gate for live cells. DNA content was determined by flow cytometry using fixed and permeabilized L. major stained with PI as previously described, but reducing the incubation time with PI and RNase A from 1 hour to 30 minutes. Histogram analysis was performed using CellQuest 3.1 software (BD Bioscience).

Compound: C[C@@H]1[C@H](O)[C@@H](C)/C=C/C=C/C=C/C=C/C=C/C=C/C=C/[C@H](O[C@@H]2O[C@H](C)[C@@H](O)[C@H](N)[C@@H]2O)C[C@@H]2O[C@](O)(C[C@@H](O)C[C@@H](O)[C@H](O)CC[C@@H](O)C[C@@H](O)CC(=O)O[C@H]1C)C[C@H](O)[C@H]2C(=O)O [amphotericin B]
- potency of anti-leishmanial agent [1]: 30 nM

Compound: NVP-BEZ235
- mean survival day (MSD) ([2]; 5 mg/kg intraperitoneal): 10.8 (±2.4) days
- mean survival day (MSD) ([2]; 10 mg/kg intraperitoneal): 13.4 (±3.3) days
- parasites eliminated ([2]; 10 mg/kg, for four days): 80%
- parasitemia ([2]; 5 or 10 mg/kg intraperitoneal, within two days, detection limit): < 10^4 parasites/mL
- body weight of drug-treated mice ([3]; 12.5 mg/kg/day oral gavage, L. major infected mice): significant weight loss; also recorded: severe weight loss
- efficacy against L. major infection ([3]; 12.5 mg/kg/day, 10 days, oral gavage): no efficacy; also recorded: no therapeutic effect
- lethality at higher doses ([3]; dosing intraperitoneally at 25 mg/kg/day (higher drug doses)): lethal
- highest tolerable dose ([3]; orally, L. major mouse model): 12.5 mg/kg
- EC50 [4]: 110 ± 50 nM
- activity against free, non-replicating T. cruzi trypomastigotes in words [5]: inactive
- EC50 ([5]; non-replicating, outside host cells, read-out: EC50 against free trypomastigotes): > 50000 nM
- EC50 [6]: 1.7 ± 0.5 nM
- EC50 [7]: 70 to 140 nM
- EC50 ([8]; Table 3, read-out: EC50 T. b. rhodesiense EATRO3): 0.73 ± 0.06 nM
- EC50 ([8]; bloodstream form, cell printed in nM, read-out: Effective concentration (EC50) T. b. rhodesiense): 0.73 ± 0.06 nM
- EC50 ([8]; read-out: activity against EATRO3 strain of T. b. rhodesiense): 0.73 nM
- efficacy against T. cruzi infection [9]: no efficacy
- EC50 [10]: 70 ± 40 nM
- effect on cellular DNA content / cell cycle, T. b. brucei [11]: appearance of zoids (anucleated cells) [59] and multinucleated cells; also recorded: reduction of G1 and G2 cells
- EC50 [12]: 50 nM
- EC50 ([13]; Table 3, read-out: EC50 T. b. gambiense ELIANE): 0.18 ± 0.2 nM
- EC50 ([13]; read-out: EC50 against BSF T. brucei gambiense ELIANE): 0.179 nM
- EC50 [14]: 140 ± 80 nM
- amastigote lysis within host cells ([15]; 350 nM, after three days, NIH-3T3 host cells): amastigotes lysis within host cells was observed
- EC50 ([15]; read-out: EC50 T. cruzi infection of host cell fibroblasts): 120 nM
- potency against BSF T. brucei brucei in words ([16]; Lister 427): nanomolar potency
- EC50 ([16]; Table 3, read-out: EC50 T. b. brucei 427): 16.3 ± 4.7 nM
- EC50 ([16]; bloodstream form, cell printed in nM, read-out: Effective concentration (EC50) T. b. brucei): < 10 nM
- effect on cell size and DNA content, L. major promastigotes [17]: G2 growth arrest and increased promastigote size
